From PubChem BioAssay AID1963428 (Molecular Pharmacology Branch, DTP, NCI, 2024)
Values belong to the molecule of their own block, whether it stands above or below them.

Test system: 171881-019-R-J1-PDC complex spheroid growth, % test/control
Test: Anticancer human tumor 171881-019-R-J1-PDC patient-derived invasive breast carcinoma cell line growth inhibition [Asc]
Conditions: for IC50: curve of first compound; for viability, T/C: stronger effect = lower value
Method in brief: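 Concentration series start at each agent's clinical Cmax, or at 10 microM when none is established, and drop in half-log steps; agents are applied alone or together to complex spheroids built with HUVEC and hMSC.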
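For viability, T/C in this document: spheroids exposed to compounds for 7 days.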

IC50 (second compound 0.03 µM): 34.5 nM | IC50 (second compound 0.0949 µM): 29.2 nM | IC50 (second compound 0.3 µM): 37.4 nM | IC50 (second compound 0.949 µM): 38.1 nM | IC50 (second compound 3 µM): 29.3 nM
Compound: NC(=O)C(=Cn1cnc(-c2cc(C(F)(F)F)cc(C(F)(F)F)c2)n1)c1cncnc1 + CCN1C(C(=O)NC23CCC(C(=O)O)(CC2)CC3)C(c2cccc(Cl)c2F)C2(C(=O)Nc3cc(Cl)ccc32)C12CCCCC2
viability, T/C (second compound 0.03 µM, first compound 0.000949 µM): 116% | viability, T/C (second compound 0.03 µM, first compound 0.003 µM): 103% | viability, T/C (second compound 0.03 µM, first compound 0.00949 µM): 93.8% | viability, T/C (second compound 0.03 µM, first compound 0.03 µM): 57.9% | viability, T/C (second compound 0.03 µM, first compound 0.0949 µM): 9.64% | viability, T/C (second compound 0.03 µM, first compound 0.3 µM): 3.28% | viability, T/C (second compound 0.0949 µM, first compound 0.000949 µM): 139% | viability, T/C (second compound 0.0949 µM, first compound 0.003 µM): 101% | viability, T/C (second compound 0.0949 µM, first compound 0.00949 µM): 100% | viability, T/C (second compound 0.0949 µM, first compound 0.03 µM): 48.6% | viability, T/C (second compound 0.0949 µM, first compound 0.0949 µM): 10.1% | viability, T/C (second compound 0.0949 µM, first compound 0.3 µM): 3.82% | viability, T/C (second compound 0.3 µM, first compound 0.000949 µM): 121% | viability, T/C (second compound 0.3 µM, first compound 0.003 µM): 118% | viability, T/C (second compound 0.3 µM, first compound 0.00949 µM): 108% | viability, T/C (second compound 0.3 µM, first compound 0.03 µM): 60.3% | viability, T/C (second compound 0.3 µM, first compound 0.0949 µM): 8.36% | viability, T/C (second compound 0.3 µM, first compound 0.3 µM): 2.76% | viability, T/C (second compound 0.949 µM, first compound 0.000949 µM): 126% | viability, T/C (second compound 0.949 µM, first compound 0.003 µM): 115% | viability, T/C (second compound 0.949 µM, first compound 0.00949 µM): 114% | viability, T/C (second compound 0.949 µM, first compound 0.03 µM): 61% | viability, T/C (second compound 0.949 µM, first compound 0.0949 µM): 8.13% | viability, T/C (second compound 0.949 µM, first compound 0.3 µM): 0.97% | viability, T/C (second compound 3 µM, first compound 0.000949 µM): 111% | viability, T/C (second compound 3 µM, first compound 0.003 µM): 117% | viability, T/C (second compound 3 µM, first compound 0.00949 µM): 105% | viability, T/C (second compound 3 µM, first compound 0.03 µM): 48.8% | viability, T/C (second compound 3 µM, first compound 0.0949 µM): 6.01% | viability, T/C (second compound 3 µM, first compound 0.3 µM): 1.16%

IC50 (second compound 0.03 µM): 511 nM | IC50 (second compound 0.0949 µM): 660 nM | IC50 (second compound 0.3 µM): 581 nM | IC50 (second compound 0.949 µM): 455 nM | IC50 (second compound 3 µM): 286 nM
Compound: O=C(c1ccc(F)c(F)c1Nc1ccc(I)cc1F)N1CC(O)([C@@H]2CCCCN2)C1 + CCN1C(C(=O)NC23CCC(C(=O)O)(CC2)CC3)C(c2cccc(Cl)c2F)C2(C(=O)Nc3cc(Cl)ccc32)C12CCCCC2
viability, T/C (second compound 0.03 µM, first compound 0.00316 µM): 102% | viability, T/C (second compound 0.03 µM, first compound 0.01 µM): 100% | viability, T/C (second compound 0.03 µM, first compound 0.0316 µM): 113% | viability, T/C (second compound 0.03 µM, first compound 0.1 µM): 153% | viability, T/C (second compound 0.03 µM, first compound 0.316 µM): 60.5% | viability, T/C (second compound 0.03 µM, first compound 1 µM): 35.2% | viability, T/C (second compound 0.0949 µM, first compound 0.00316 µM): 91.6% | viability, T/C (second compound 0.0949 µM, first compound 0.01 µM): 91.1% | viability, T/C (second compound 0.0949 µM, first compound 0.0316 µM): 151% | viability, T/C (second compound 0.0949 µM, first compound 0.1 µM): 151% | viability, T/C (second compound 0.0949 µM, first compound 0.316 µM): 69.5% | viability, T/C (second compound 0.0949 µM, first compound 1 µM): 39% | viability, T/C (second compound 0.3 µM, first compound 0.00316 µM): 87.6% | viability, T/C (second compound 0.3 µM, first compound 0.01 µM): 108% | viability, T/C (second compound 0.3 µM, first compound 0.0316 µM): 132% | viability, T/C (second compound 0.3 µM, first compound 0.1 µM): 144% | viability, T/C (second compound 0.3 µM, first compound 0.316 µM): 61.3% | viability, T/C (second compound 0.3 µM, first compound 1 µM): 39.9% | viability, T/C (second compound 0.949 µM, first compound 0.00316 µM): 96.2% | viability, T/C (second compound 0.949 µM, first compound 0.01 µM): 111% | viability, T/C (second compound 0.949 µM, first compound 0.0316 µM): 157% | viability, T/C (second compound 0.949 µM, first compound 0.1 µM): 127% | viability, T/C (second compound 0.949 µM, first compound 0.316 µM): 56% | viability, T/C (second compound 0.949 µM, first compound 1 µM): 37% | viability, T/C (second compound 3 µM, first compound 0.00316 µM): 112% | viability, T/C (second compound 3 µM, first compound 0.01 µM): 128% | viability, T/C (second compound 3 µM, first compound 0.0316 µM): 174% | viability, T/C (second compound 3 µM, first compound 0.1 µM): 111% | viability, T/C (second compound 3 µM, first compound 0.316 µM): 48.2% | viability, T/C (second compound 3 µM, first compound 1 µM): 40.1%
